# Test results published in article PMC10609152, “Synthesis, Computational, and Anticancer In Vitro Investigations of Aminobenzylnaphthols Derived from 2-Naphtol, Benzaldehydes, and α-Aminoacids via the Betti Reaction” (Molecules, 2023).
# Like-named read-outs stand apart in the source and are kept apart here.
# Columns and labels:
# [1] = test system: BxPC-3 cells; assay: MTT assay, BxPC-3; format: cell-based; conditions: Homo sapiens
# Excerpt: (§1) The MTT assay, also known as the 3-(4,5-dimethylthiazol-2-yl)-2,5-diphenyltetrazolium bromide assay, is a colorimetric assay used in biological and biomedical research to determine cell viability and proliferation. The MTT assay works on the assumption that live cells with active metabolism convert MTT into formazan crystals. These crystals are insoluble; however, they can be dissolved in an organic solvent such as DMSO to produce a colorful solution. The color intensity is proportional to the number of viable cells present in the culture.
# (§2) BxPC-3, HT-29, and WI-38 cells were seeded on 96-well plates at a density of approximately 8–10 × 10^3 cells per 100 µL medium/well. Cells were allowed to grow for 24 h in controlled conditions (37 °C; 5% CO2). […] The experimental design included nontreated controls and blanks (wells without cells). Following 24 or 72 h of culture with the investigated compounds, 20 μL of MTT tetrazolium salt (5 mg/mL in PBS) was added to each well, and the plates were incubated for 3 h in a humidified environment (37 °C; 5% CO2). The solutions were withdrawn after incubation, and 100 μL of DMSO was added to dissolve the formazan complexes. Afterward, a spectrophotometer (microplate reader Power Wave XS BioTek Instruments, Inc., Winooski, VT, USA) reading at 570 nm was conducted. The experiments were carried out in duplicates.
# (§3) GraphPad Prism 7 software was used to calculate the concentration of an MMZ compound reflecting a 50% growth inhibition (IC50). IC50 is defined as a concentration of tested compound that leads to a reduction in cell pool viability by 50% compared to the negative control (accepted as 100%). % cell viability=Absorbance value of treated cells−Absorbance value of blank/(Absorbance value of untreated cells−Absorbance value of blank)×100%
# [2] = test system: HT-29 cells; assay: MTT assay, HT-29; format: cell-based; conditions: Homo sapiens
# Excerpt: as §1, §2, §3
# [3] = MTT cell viability, WI-38 normal fibroblasts; format: cell-based; conditions: human, read-out: % cell viability ± SD; for viability at 72 h: WI-38, 72 h; for viability at 24 h: WI-38, 24 h
# Experimental: as §2, §3
# [4] = solubility (remark); format: physicochemical
# [5] = BxPC-3, 24-h MTT, independent experiment 1, read-out: IC50(1)
# [6] = BxPC-3, 24-h MTT, independent experiment 2, read-out: IC50(2)
# [7] = BxPC-3, 24-h MTT, read-out: Mean IC50 ± SD
# [8] = BxPC-3, 72-h MTT, independent experiment 1, read-out: IC50(1)
# [9] = BxPC-3, 72-h MTT, independent experiment 2, read-out: IC50(2)
# [10] = BxPC-3, 72-h MTT, read-out: Mean IC50 ± SD
# [11] = HT-29, 24-h MTT, independent experiment 1, read-out: IC50(1)
# [12] = HT-29, 24-h MTT, independent experiment 2, read-out: IC50(2)
# [13] = HT-29, 24-h MTT, read-out: Mean IC50 ± SD
# [14] = HT-29, 72-h MTT, independent experiment 1, read-out: IC50(1)
# [15] = HT-29, 72-h MTT, independent experiment 2, read-out: IC50(2)
# [16] = HT-29, 72-h MTT, read-out: Mean IC50 ± SD
# [17] = WI-38 normal fibroblast cells, compound at IC50 concentration obtained for HT-29 cells
# [18] = BXPC-3, 24 h, read-out: IC50(1)
# [19] = BXPC-3, 24 h, read-out: IC50(2)
# [20] = BXPC-3, 24 h, read-out: Mean IC50 ± SD
# [21] = BXPC-3, 72 h, read-out: IC50(1)
# [22] = BXPC-3, 72 h, read-out: IC50(2)
# [23] = BXPC-3, 72 h, read-out: Mean IC50 ± SD
# [24] = compound at IC50 concentration estimated for BxPC-3 cells
# [25] = compound at IC50 concentration obtained for HT-29 cells
# [26] = HT-29, 24 h, read-out: Mean IC50 ± SD
# [27] = HT-29, 72 h, read-out: Mean IC50 ± SD
# [28] = WI-38 normal fibroblast cells, compound at IC50 concentration estimated for BxPC-3 cells
Compound,"IC50 [1, 5] [µM]","IC50 [1, 6] [µM]","IC50 [1, 7] [µM]","IC50 [1, 8] [µM]","IC50 [1, 9] [µM]","IC50 [1, 10] [µM]","IC50 [2, 11] [µM]","IC50 [2, 12] [µM]","IC50 [2, 13] [µM]","IC50 [2, 14] [µM]","IC50 [2, 15] [µM]","IC50 [2, 16] [µM]",other results
"COC(=O)[C@@H](N[C@@H](c1ccccc1)c1c(O)ccc2ccccc12)C(C)C (mixture of isomers) [MMZ-33D, (S,S) and (R,R)-methyl ((2-hydroxynaphthalen-1-yl)(phenyl)methyl)-D-valinate]",47.8,50.8,49.3 ± 2.09,50,28.7,39.4 ± 15.1,60.4,61.9,61.1 ± 1.02,32.3,43.4,37.9 ± 7.86,–
"COC(=O)[C@@H](N[C@@H](c1ccc(Cl)cc1)c1c(O)ccc2ccccc12)C(C)C (mixture of isomers) [MMZ-39AA, (S,S) and (R,R)-methyl ((4-chlorophenyl)(2-hydroxynaphthalen-1-yl)methyl)-D-valinate]",61.4,60.3,60.8 ± 0.8,44.8,41.6,43.2 ± 2.26,62.1,64,63.1 ± 1.36,50.6,65.6,58.1,"viability at 72 h [3, 17]: 64 ± 4.9%"
"COC(=O)[C@H](Cc1ccccc1)N[C@H](c1ccccc1)c1c(O)ccc2ccccc12 (mixture of isomers) [MMZ-45B, (S,R) and (R,S)-methyl ((2-hydroxynaphthalen-1-yl)(phenyl)methyl)-L-phenylalaninate]",–,–,–,–,–,–,–,–,–,–,–,–,"IC50 [1, 18]: 58.5 µM; IC50 [1, 19]: 40.5 µM; IC50 [1, 20]: 49.3 ± 13 µM; IC50 [1, 21]: 35.6 µM; IC50 [1, 22]: 24.7 µM; IC50 [1, 23]: 30.1 ± 7.73 µM; viability at 24 h [3, 24]: 91.73 ± 0.87%; viability at 72 h [3, 24]: 86.7 ± 8.14%; viability at 72 h [3, 25]: 88.2 ± 1.6%; IC50 ([2]; HT-29, 24 h, read-out: IC50(1)): 29 µM; IC50 ([2]; HT-29, 24 h, read-out: IC50(2)): 34.6 µM; IC50 [2, 26]: 31.8 ± 3.93 µM; IC50 ([2]; HT-29, 72 h, read-out: IC50(1)): 29.6 µM; IC50 ([2]; HT-29, 72 h, read-out: IC50(2)): 38.7 µM; IC50 [2, 27]: 34.1 ± 6.39 µM"
"COC(=O)C[C@H](N[C@@H](c1ccccc1)c1c(O)ccc2ccccc12)C(=O)OC (mixture of isomers) [MMZ-147B, (S,S) and (R,R)-dimethyl ((2-hydroxynaphthalen-1-yl)(phenyl)methyl)-L-aspartate]",44.8,59.7,–,69.8,39.3,54.6,44.2,46.8,45.5 ± 1.77,12.2,17.6,14.9 ± 3.8,"viability at 24 h [3, 28]: 69.94 ± 0.21%; viability at 72 h [3, 28]: 72.5 ± 4.37%; viability at 72 h [3, 17]: 86.8 ± 5%"
"COC(=O)C[C@H](N[C@H](c1ccccc1)c1c(O)ccc2ccccc12)C(=O)OC (mixture of isomers) [MMZ-147CE, (S,R) and (R,S)-dimethyl ((2-hydroxynaphthalen-1-yl)(phenyl)methyl)-L-aspartate]",–,–,–,–,–,–,–,–,–,–,–,–,"IC50 [1, 18]: 54.1 µM; IC50 [1, 19]: 41 µM; IC50 [1, 20]: 47.5 ± 9.26 µM; IC50 [1, 21]: 59.6 µM; IC50 [1, 22]: 34.1 µM; IC50 [1, 23]: 46.8 ± 18 µM; viability at 24 h [3, 24]: 82.5 ± 1.8%; viability at 72 h [3, 25]: 66.9 ± 1.08%; IC50 ([2]; HT-29, 24 h, read-out: IC50(1)): 113 µM; IC50 ([2]; HT-29, 24 h, read-out: IC50(2)): 110 µM; IC50 [2, 26]: 112 ± 2.12 µM; IC50 ([2]; HT-29, 72 h, read-out: IC50(1)): 37.1 µM; IC50 ([2]; HT-29, 72 h, read-out: IC50(2)): 46.1 µM; IC50 [2, 27]: 41.6 ± 6.32 µM"
"COC(=O)CC[C@H](N[C@@H](c1ccccc1)c1c(O)ccc2ccccc12)C(=O)OC (mixture of isomers) [MMZ-148B, (S,S) and (R,R)-dimethyl ((2-hydroxynaphthalen-1-yl)(phenyl)methyl)-L-glutamate]",–,–,–,–,–,–,–,–,–,–,–,–,solubility [4]: poor solubility
"COC(=O)CC[C@H](N[C@H](c1ccccc1)c1c(O)ccc2ccccc12)C(=O)OC (mixture of isomers) [MMZ-148C, (S,R) and (R,S)-dimethyl ((2-hydroxynaphthalen-1-yl)(phenyl)methyl)-L-glutamate]",–,–,–,–,–,–,–,–,–,–,–,–,solubility [4]: poor solubility
"COC(=O)[C@H](CC(C)C)N[C@@H](c1ccccc1)c1c(O)ccc2ccccc12 (mixture of isomers) [MMZ-167C, (S,S) and (R,R)-methyl ((2-hydroxynaphthalen-1-yl)(phenyl)methyl)-L-leucinate]",71.4,61,66.2 ± 7.36,32.9,31.2,32.1 ± 1.15,47.7,50,–,27.8,28.4,28.1 ± 0.375,"viability at 24 h [3, 28]: 76.8 ± 1.8%; viability at 24 h [3, 17]: 82.19 ± 0.69%"
"O=c1[nH]cc(F)c(=O)[nH]1 [5-Fluorouracil, reference compound]",49.4,28.6,39 ± 14.7,14.8,12.1,13.4 ± 1.9,48.8,55.7,52.3 ± 4.9,5.16,3.6,4.38 ± 1.1,–
